Assay results: patent EP0230052B1, “Immunoamplifiers and related Compositions” (Gottlieb, Arthur A., priority 1985, dated 1987)

Key:
DH response = experiment: Modulator assay methods of the '379 patent (amplifier activity, DH test); format: in vivo, human; conditions: other moieties in effluents of Example 6B process
[1] = test system: IL-2 production in response to mitogen PHA; experiment: IL-2 in vitro test (PHA-stimulated IL-2 production); format: cell-based, human; conditions: optimal concentration of TGG
Excerpt: The production of IL-2 in response to mitogen was characterized by the existence of the same optimal concentration phenomenon (paradoxical effect) described above.

[2] = test system: DH skin reaction to tetanus toxoid; design: species or system human; conditions: in vivo

Substance	immunological activity as assayed by DH test (DH response)	ratio of PHA-stimulated IL-2 production with TGG added to without TGG ([1]; subject #1)	ratio of PHA-stimulated IL-2 production with TGG added to without TGG ([1]; subject #2)	optimum concentration for maximum immune effect [2]
Gly-Gly	None of these other moieties appeared to possess immunological activity			
Tyrosylglycylglycine [TGG]		1.45	2.55	~3 fM
Ser-Phe	None of these other moieties appeared to possess immunological activity			
